Earlier results, collected in patent USRE39705E1, “Method of treating glutathione deficient mammals” (Vit-Immune, L.C., priority 1998, dated 2007).
Blank lines part the entries; values can stand above or below the molecule they belong to.

Assays:
[1] = not given; remark: listed apart in the source

SMILES: O=C(O)CCCCC1CCSS1 (stereo not drawn) [Alpha lipoic acid, alpha lipoic acid]
intracellular reduced glutathione (in vitro and in vivo (literature)): substantial increase

absorption of oral supplementation by the mammal's cells [1]: not well absorbed
replenishment of intracellular glutathione losses ([1]; oral): does not replenish losses inside cells
SMILES: N[C@@H](CCC(=O)N[C@@H](CS)C(=O)NCC(=O)O)C(=O)O [glutathione, γ-L-Glutamyl-L-cysteinylglycine]

SMILES: NC(=O)CC[C@H](N)C(=O)O [L-glutamine]
liver glutathione (after lethal hepatic injury): preserve liver glutathione

SMILES: N[C@@H](CS)C(=O)O [Example 1-cysteine, 1-cysteine]
GSH levels (substituted into the diet in place of the total protein allowance): effective in raising GSH levels
